The values below come from publication PMC7180617, “Biological Evaluation of 3-Benzylidenechromanones and Their Spiropyrazolines-Based Analogues” (Molecules, 2020).

Values joined by “and” are separate entries in the source; they are usually repeats but may differ in a detail not shown here. Equal values may be shown once.

The test system of data set [1] is plasmid DNA (pcDNAHisC). Briefly: Digestion of plasmid DNA with BamHI restriction nuclease (DNA-cleavage protection). Particulars: 10 µM, overnight 37 °C, then BamHI 3 h, agarose gel. Format: biochemical. On the procedure:
This cytotoxicity was tested with regard to its effect on the cell cycle and the ability to modify DNA. In addition to the compounds shown in Table 4, two highly-cytotoxic compounds (11 and 12) were also tested. Their structure and biological activity were described in a previous article. […] To test this hypothesis, plasmid DNA was incubated with the test compounds and subsequently digested with BamH1 endonuclease. […] This conclusion is supported by the presence of the circular form of plasmid DNA after digestion with BamH1.
First, 0.5 µg of plasmid DNA (pcDNAHisC, total length 5.5 kbp) containing a unique BamHI restriction site was dissolved in a 1x BamHI reaction buffer and incubated overnight at 37 °C with the test compounds or daunorubicin, which was used as a positive control. The concentration of the test compounds and daunorubicin in the samples was 10 µM. The final concentration of DMSO in all samples was 10%. In the next step, the reaction mixtures were digested with BamHI restriction endonuclease (2 U/µL) for 3 h at 37 °C. Total reaction volume was 10 µL. Products of the reaction were separated in the 1% agarose gel in TBE buffer. The gel was stained with ethidium bromide and DNA fragments were visualized under a UV lamp (GBox, Syngene, Frederick, MD, USA).

In data set [2] the test system is NALM-6 cells. Details: method as in PMID 30513785. Particulars: MTT; cited from earlier work.
Data set [3] can be described thus: Lipophilicity (logP) by RP-TLC. The settings on record: RP-18 F254S TLC plates. From the text: Lipophilicity is one of the most important physicochemical properties in pharmaceutical research. It can be considered a key determinant of the pharmacokinetic properties of a drug. It is commonly measured by the partition coefficient between water and n-octanol, being expressed as logP [14]. […] Knowledge of the partition coefficient is valuable: it is frequently used in structure–activity relationship (SAR) and quantitative structure–activity relationship (QSAR) studies. The experimental lipophilicity of the synthesized compounds, viz. benzylideneflavanones, benzylidenechromanones and spiropyrazolines, was determined using RP-TLC. […] It is important to examine the relationship between structure of the compound and its lipophilicity and cytotoxicity.
The RP-TLC experiments were performed on TLC plates (5 × 10 cm) RP-18 F254S (Merck, Darmstadt, Germany). The synthesized compounds were dissolved in N,N-dimethylformamide DMF (2 mg/mL). […] A DMF-water solvent system was used as mobile phase. […] All experiments were performed at room temperature. The logP parameter was calculated using the equation from the calibration curve.

In data set [4] the test system is WM-115 cells. Details: method as in PMID 30513785. Particulars: MTT; cited from earlier work.
In data set [5] the test system is HL-60 cells. Briefly: Cell cycle analysis by flow cytometry (propidium iodide). It is filed as cell-based, human. The settings on record: for cell cycle, G1, mean / cell cycle, G2/M, mean / cell cycle, S, mean: mean of n=2; for cell cycle distribution, G1 / cell cycle distribution, G2 / cell cycle distribution, G2/M: HL-60, 20 h, mean ± SD, n = 2; for cells arrested in G2/M phase: HL-60, concentrations of IC50 and 0.5 × IC50. The protocol:
The next stage examined the effects of the selected compounds on cell cycle progression in HL-60 leukemia cells. […] One million HL-60 (subline CCL 240; cell type: promyeloblast) cells in 3 mL of RPMI 1640 supplemented with 20% FBS were seeded on 6-well plate. […] Fixed cells were stored in −20 °C for 2–3 days. Before analysis, cells were centrifuged (10 min, 1500 rpm, 4 °C) and washed twice with cold PBS. After the second wash, the cells were suspended in 1mL of PBS containing 100 μg of RNase A and incubated in 37 °C for 10 min. Next, 5 μL of solution of propidium iodide (1 mg/mL) was added to each sample and incubated in dark for 30 min at RT. Stained cells were analyzed by flow cytometry (FACS Calibur, BD Biosciences, San Jose, CA, USA). Data from 10,000 gated cells were collected using CellQuestPro software (Ver 6.0, Becton Dickinson) and cell cycle analysis was performed with ModFit LT software (Ver 3.2, Verity Software House, Topsham, ME, USA).
(In general: A flow cytometer gives signals particle by particle.)

Data set [6] relates to HL-60 cells. Details: method as in PMID 30513785. The settings on record: MTT; cited from earlier work.
Where [7] appears, read: Figure S3, HL-60, 0.5 × IC50 (µM: quercetin 29, 1 1.5, 7 18, 10 4.7, 11 4.5, 12 6).
[8] abbreviates: Figure S3, HL-60, 0.5 × IC50, each of two repetitions.
The mark [9] stands for this setting: Figure S3, HL-60, 1 × IC50 (µM in parenthesis: quercetin 58, 1 3, 7 35, 10 9.4, 11 9, 12 12).
Setting [10] is: Figure S3, HL-60, 1 × IC50 (µM: quercetin 58, 1 3, 7 35, 10 9.4, 11 9, 12 12).
Where [11] appears, read: Figure S3, HL-60, 1 × IC50, each of two repetitions.
Setting [12] is: 0.5 × IC50 (µM: quercetin 29, 2 1.5, 7 18, 12 6, 11 4.5, 10 4.7).
[13] abbreviates: 1 × IC50 (µM: quercetin 58, 2 3, 7 35, 12 12, 11 9, 10 9.4).

In the case of `COc1cccc2c1C(=O)c1c(O)c3c(c(O)c1C2=O)C[C@@](O)(C(C)=O)C[C@@H]3O[C@H]1C[C@H](N)[C@H](O)[C@H](C)O1` [daunorubicin], the “inhibition of BamHI digestion of plasmid DNA (in words)” value in data set [1] was “prevented linearization of DNA”.
With `CCN(CC)c1ccc(C=C2C(=O)c3ccccc3OC2c2ccccc2)cc1` (stereo not shown) [Compound 11, (E)-3-(4-N,N-diethylaminobenzylidene)-2-phenylchroman-4-one], in data set [2], the IC50 (in general, the midpoint of a concentration-inhibition curve) is 9.08 ± 0.3 µM. In data set [3], the chromatographic logP (usually a lipophilicity value derived from retention on a column) was determined as 5.69. The IC50 in data set [4] is 6.45 ± 0.69 µM. Besides, in data set [5] (setting [7]), the “cell cycle, G1, mean” value is reported as 5,95%; the “cell cycle, G2/M, mean” value is on record as 59,23%; the “cell cycle, S, mean” value is given as 34,83%. For the same molecule, in data set [5] (setting [8]), the “cell cycle, G1, single repetitions” value is 3,45% and 8,45%; the “cell cycle, G2/M, single repetitions” value was 64,13% and 54,32%; the “cell cycle, S, single repetitions” value was 27,42% and 42,23%. Moreover, the “cell cycle, G1, mean” value in data set [5] (setting [9]) was 3,17%. Besides, in data set [5] (setting [10]), the “cell cycle, G2/M, mean” value was 67,76% and the “cell cycle, S, mean” value is reported as 29,08%. For the same molecule, in data set [5] (setting [11]), the “cell cycle, G1, single repetitions” value is 5,16% and 1,17%; the “cell cycle, G2/M, single repetitions” value is 67,98% and 67,53%; the “cell cycle, S, single repetitions” value was 26,86% and 31,30%. Moreover, in data set [5] (setting [12]), the “cell cycle distribution, G1” value worked out at 3.2 ± 2.8%; the “cell cycle distribution, G2” value is reported as 29.1 ± 3.1%; the “cell cycle distribution, G2/M” value was determined as 67.8 ± 0.3%. Moreover, in data set [5] (setting [13]), the “cell cycle distribution, G1” value is recorded as 6 ± 3.5%; the “cell cycle distribution, G2” value is recorded as 34.8 ± 10.5%; the “cell cycle distribution, G2/M” value is on record as 59.2 ± 6.9%. The “cells arrested in G2/M phase” value in data set [5] was 50–60%. In data set [6], the IC50 is 8.36 ± 0.63 µM.
Regarding `CCN(CC)c1ccc(/C=C2\COc3ccccc3C2=O)cc1` [Compound 12, (E)-3-(4-N,N-diethylaminobenzylidene)chroman-4-one], in data set [2], the concentration for half-maximal inhibition (IC50) was 8.69 ± 0.4 µM. In addition, the chromatographic logP in data set [3] is 3.43. Also, the IC50 in data set [4] is 18.1 ± 3.14 µM. For the same molecule, in data set [5] (setting [7]), the “cell cycle, G1, mean” value is reported as 19,26%; the “cell cycle, G2/M, mean” value is reported as 52,38%; the “cell cycle, S, mean” value was 28,37%. Also, in data set [5] (setting [8]), the “cell cycle, G1, single repetitions” value is 17,44% and 21,08%; the “cell cycle, G2/M, single repetitions” value is 56,79% and 47,96%; the “cell cycle, S, single repetitions” value was 22,13% and 34,60%. Also, the “cell cycle, G1, mean” value in data set [5] (setting [9]) is given as 19,53%. In addition, in data set [5] (setting [10]), the “cell cycle, G2/M, mean” value is 52,44% and the “cell cycle, S, mean” value is on record as 28,03%. Besides, in data set [5] (setting [11]), the “cell cycle, G2/M, single repetitions” value was 44,70% and 60,18%; the “cell cycle, S, single repetitions” value was 27,06% and 29,00%. Further, in data set [5] (setting [12]), the “cell cycle distribution, G1” value is on record as 19.3 ± 2.6%; the “cell cycle distribution, G2” value is 28.4 ± 8.8%; the “cell cycle distribution, G2/M” value stood at 52.4 ± 6.2%. Also, in data set [5] (setting [13]), the “cell cycle distribution, G1” value came out at 19.5 ± 12.3%; the “cell cycle distribution, G2” value is listed as 28.0 ± 1.4%; the “cell cycle distribution, G2/M” value stood at 52.4 ± 10.9%. For the same molecule, the “cells arrested in G2/M phase” value in data set [5] is listed as 50–60%. In data set [6], the IC50 is 11.8 ± 1.97 µM.
